# Experimental data from patent publication US7485619B2, “Antimicrobial agent” (priority 2005, dated 2009).
# Read-outs that look alike come from different tables or passages of the source. No end group written: not given here.
# Legend:
# [1] = tested on: Staphylococcus aureus (ATCC 25923); type: cell-based; conditions: for bactericidal activity (in words): Table 1
# Procedure: (§1) FIGS. 2A-2C show antimicrobial activity of mucocidin. (A) The growth rate of E. coli (0.5×10^3) containing pBluescript SK plasmid with mucocidin cDNA insert and the control E. coli containing plasmid alone in 20 ml LB broth cultured for 5 days. Cell growth was monitored by Absorbance at 600 nm (A600). Induction of vector expression by 20 μL isopropyl-B-D-thiogalactopyranoside (IPTG 1 mM) is on the bottom line. Each point represents average of five experiments. (B) Bactericidal activity of synthetic mucocidin peptide was measured by the percent colony formation units of E. coli and Staphylococcus aureus. Cells (5×10^5) were cultured in 100 μL in IB broth containing 0, 5, 10, 20 μM concentration of mucocidin. After one hour, cell viability was determined by plating 300 μL aliquots of the 200 fold diluted cultured cell broth on LBA or TSA plates, respectively. […] (C) Scanning electron micrographs of E. coli, Staphylococcus aureus and Candida albicans incubated with 10, […] mucocidin, respectively for 10, 20 and 30 min, and they were immediately fixed with glutaraldehyde, dried on the Millipore membrane, and coated with gold. […] All photographs were taken at the same magnification. Scale bar, 1 μm.
# (§2) E. coli (ATCC 20922) (5×10^5 cells) in 100 μL of 10 mM Phosphate Buffer, pH 7.0 containing mucocidin peptide concentration of 5, 10, 15, 20, or 50 μM was incubated for an hour. Then, it was diluted 200 fold with the same buffer and 300 μL aliquots (approx. 750 cells) were plated on 150 mm LB plate and grown overnight at 37° C. The grown colonies were counted. The cell viability was estimated by the percent of colony forming units. Staphylococcus aureus (ATCC 25923) and methicillin resistant Staphylococcus aureus (MRSA) (ATCC 700698) were incubated with mucocidin concentration up to 5 μM. Candida albicans (ATCC 10231) were incubated with mucocidin concentration levels up to 50 μM^44.
# Bactericidal activity of various deletion peptides of mucocidin (PeptRon, Korea) was compared with the activity of Magainin II (23 mer) peptide (Table 1). […] Also first 15 residue peptide likely functions as propeptide and native peptide will likely have 31 residues.
# [2] = tested on: E. coli; test: Antimicrobial activity of isolated native salivary mucocidin; type: cell-based; conditions: data not shown
# [3] = Bacteriocidal activity of salivary mucocidin fractions; type: cell-based; conditions: both Superose 12 peak fractions
# Procedure: Thirty milliliters of parotid saliva from each volunteer was collected into the tube containing 1.0 ml of 0.25 M citrate buffer, pH 4.0 containing 0.02% NaN3. The 10 ml acidified saliva was adsorbed into SP-Sepharose column (2.4×6 ml) equilibrated with 0.025 M citrate buffer pH 4.0, the column was washed with 3 fold column volume each of the equilibrating buffer and the 0.05 M tris-acetate buffer pH 6.0 containing 1 mM EDTA. The mucocidin was eluted with the 0.05 M tris-acetate buffer, pH 6.0 containing 0.15 M NaCl. The eluted mucocidin containing fractions assayed by immunodot blot analysis were pooled and concentrated in Speed-vac centrifuge evaporation apparatus. Pooled mucocidin fractions were applied to Superose 12 column equilibrated with 0.02 M tris-acetate buffer pH 6.0. Two of the mucocidin peaks were detected first at 8 kDa molecular weight marker and next far beyond the column volume.
# [4] = tested on: E. coli; test: Scanning electron micrography of microbes treated with mucocidin; type: cell-based; conditions: 10 μM mucocidin; 10, 20 and 30 min
# Procedure: as §1
# (§3) Scanning Electron Micrographs were taken of E. coli, Staphylococcus aureus and Candida albicans incubated with 10, 40, 100 μM mucocidin, respectively for 10, 20 and 30 min, and they were immediately fixed with glutaraldehyde, dried on Millipore membrane, and coated with gold. […] All photographs were taken at the same magnification.
# (§4) The primary growth of E. coli containing the mucocidin peptide was inhibited in a dose-dependent manner (FIG. 2B). […] To explore a possible mechanism of mucocidin elicited bactericidal activity, the progress of morphological alteration of microbes upon the treatment of mucocidin was determined by scanning electron Microscopy. E. coli, Staphylococcus aureus and Candida albicans (FIG. 2C) incubated with 10, 40, 100 μM mucocidin, respectively for various time periods, were immediately fixed, dried, and coated with gold. […]
# [5] = tested on: Staphylococcus aureus; test: as above; type: cell-based; conditions: 40 μM mucocidin; 10, 20 and 30 min
# Procedure: as §1, §3, §4
# [6] = tested on: Candida albicans; test: as above; type: cell-based; conditions: 100 μM mucocidin; 10, 20 and 30 min
# Procedure: as §1, §3, §4
# [7] = tested on: E. coli (ATCC25922); type: cell-based; conditions: for decrease of colony forming unit (CFU) percentages: one hour incubation
# Procedure: as §1, §2
# [8] = target: T1, guinea pig liver transglutaminase (UniProt P08587); test: Mucocidin as transglutaminase substrate, monodansylcadaverine incorporation; type: biochemical; conditions: 50 μM mucocidin, 10 μM MDC; 20, 40, 60, 120 min; with or without Ca++
# T1 construct: using guinea pig liver transglutaminase (Sigma, St. Luois, Mo.); purchased Sigma; host or cells: guinea pig liver
# T1 sequence (P08587 whole entry): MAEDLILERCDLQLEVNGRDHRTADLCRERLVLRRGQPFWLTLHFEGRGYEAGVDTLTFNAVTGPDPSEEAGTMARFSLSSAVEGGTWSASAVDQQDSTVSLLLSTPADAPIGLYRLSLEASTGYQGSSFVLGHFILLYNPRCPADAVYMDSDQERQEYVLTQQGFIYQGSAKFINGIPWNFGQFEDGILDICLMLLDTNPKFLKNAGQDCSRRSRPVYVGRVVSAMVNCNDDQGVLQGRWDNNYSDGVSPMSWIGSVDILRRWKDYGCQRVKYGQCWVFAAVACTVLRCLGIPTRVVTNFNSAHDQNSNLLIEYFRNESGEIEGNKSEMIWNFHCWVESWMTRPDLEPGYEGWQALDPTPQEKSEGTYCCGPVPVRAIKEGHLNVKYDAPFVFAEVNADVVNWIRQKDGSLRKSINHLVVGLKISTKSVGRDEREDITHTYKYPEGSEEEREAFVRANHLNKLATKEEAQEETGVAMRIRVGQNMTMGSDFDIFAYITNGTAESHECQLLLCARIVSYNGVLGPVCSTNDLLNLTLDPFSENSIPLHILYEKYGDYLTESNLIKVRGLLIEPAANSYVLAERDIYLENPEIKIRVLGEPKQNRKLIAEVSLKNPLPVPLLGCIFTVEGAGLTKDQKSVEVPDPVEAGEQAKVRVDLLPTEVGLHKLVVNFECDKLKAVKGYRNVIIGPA
# Procedure: Mucocidin as a transglutaminase substrate was carried out by a slightly modified method of previously described^27 using guinea pig liver transglutaminase (Sigma, St. Luois, Mo.). Transglutaminase assay was carried out by adding 10 μl of enzyme (10 μg) into 90 μL of reaction mixture containing 0.05 M tris acetate buffer, pH 8.0,1 mM EDTA, 5 mM dithiothreitol, 10 mM CaCl2, 0.2% lubrol, and 10 μM of monodansylcadaverine (MDC)(Sigma) and mucocidin (50 μM). Ten μL aliquot of the reaction mixture was removed at 20, 40, 60 and 120 min and added into 500 μL volume of 1 mM EDTA solution to halt the enzyme reaction. Unreacted MDC in solution was extracted with n-hexane. The reacted mucocidin in aqueous solution was blotted on a cellulose nitrate membrane in a slot filtering apparatus (Bio Rad Lab) and washed once with 0.5 mL of water. Relative fluorescence was indicated as a measure of MDC incorporated mucocidin. The aliquots taken from each sample was analyzed on SDS-PAGE.
# These immunological staining of the mucosal epithelium indicate that mucocidin is expressed in the outer layers of epithelium and the secreted peptide remains bound to the epithelial surface. […]
# [9] = tested on: methicillin-resistant Staphylococcus aureus (ATCC 700698); type: cell-based
# Procedure: as §2
# [10] = tested on: Candida albicans (ATCC 10231); type: cell-based
# Procedure: as §2
# [11] = tested on: E. coli (ATCC #8739); test: USP Antimicrobial Test; type: cell-based; conditions: three log dilution
# Text: (§5) The mucocidin (Microtest Laboratories Test sample #05-03383) met the requirement of the USP Validation of Microbial Recovery.
# [12] = tested on: Candida albicans (ATCC #10231); test: USP Antimicrobial Test; type: cell-based; conditions: three log dilution
# Text: as §5
# [13] = tested on: P. aeruginosa (ATCC #9027); test: USP Antimicrobial Test; type: cell-based; conditions: three log dilution
# Text: as §5
# [14] = tested on: Aspergellous niger (ATCC #16404); test: USP Antimicrobial Test; type: cell-based; conditions: three log dilution
# Text: as §5
# [15] = tested on: S. aureus (ATCC #6538); test: USP Antimicrobial Test; type: cell-based; conditions: three log dilution
# Text: as §5
compound,measurement,setting,value
EYIYNSACSVLSATSSVSSRVLNRSLQVKVVKITN [Peptide 35-mer],"S. aureus (MBC, μM)",[1]; ATCC 25923,>50.0 µM
SSVSSRVLNRSLQVKVVKITN [Peptide 21-mer],"S. aureus (MBC, μM)",[1]; ATCC 25923,>3.5 µM
"isolated native salivary mucocidin: glycosylated native mucocidin isolated from human parotid saliva by ion exchange and Superose 12 chromatography (MHDFWVLWVLLEYIYNSACSVLSATSSVSSRVLNRSLQVKVVKITN; also: glycosylated, sites not given here)",antimicrobial activity against E. coli,[2],retained antimicrobial activity
same,bacteriocidal activity,[3],bacteriocidal activity similar to mucocidin peptides
"VLNRSLQVKVVKITN [Peptide 15-mer, VLNRSLQVKVVKITN]","S. aureus (MBC, μM)",[1]; ATCC 25923,>20.0 µM
"VSSRVLNRSLQVKVVKITN [Peptide 19-mer, VSSRVLNRSLQVKVVKITN]","S. aureus (MBC, μM)",[1]; ATCC 25923,>3.5 µM
MHDFWVLWVLLEYIYNSACSVLSATSSVSSRVLNRSLQVKVVKITN [Peptide 46-mer],morphology of the microbe by SEM,[4],loss and shrinkage of original cell shapes
same,morphology of the microbe by SEM,[5],loss and shrinkage of original cell shapes
same,morphology of the microbe by SEM,[6],loss and shrinkage of original cell shapes
same,decrease of colony forming unit (CFU) percentages,[7]; 5 μM mucocidin,20%
same,decrease of colony forming unit (CFU) percentages,[7]; 10 μM mucocidin,40%
same,decrease of colony forming unit (CFU) percentages,[7]; 15 μM mucocidin,50%
same,decrease of colony forming unit (CFU) percentages,[7]; 20 μM mucocidin,60%
same,minimal bactericidal concentration (MBC),[7]; ATCC25922,40 ± 7.3 µM
same,time-dependent uptake of MDC into mucocidin,[8],detected only in the presence of Ca^++
same,minimal bactericidal concentration (MBC),[9],50 ± 10.9 µM
same,sensitivity of methicillin-resistant Staphylococcus aureus (in words),[9],very sensitive to low concentrations
same,minimal bactericidal concentration (MBC),[10],80 ± 13.5 µM
same,"S. aureus (MBC, μM)",[1]; ATCC 25923,>70.0 µM
same,minimal bactericidal concentration (MBC),[1]; ATCC 25923,3 ± 0.5 µM
same,sensitivity of primary growth of Staphylococcus aureus relative to E. coli,[1]; S. aureus versus E. coli,ten fold more sensitive
same,bactericidal activity (in words),[1],good bactericidal activity
ATSSVSSRVLNRSLQVKVVKITN [Peptide 23-mer-C],growth of the organism,[11],almost no growth
same,growth of the organism,[12],almost no growth
same,growth of the organism,[13],almost no growth
same,growth of the organism,[14],almost no growth
same,growth of the organism,[15],almost no growth
same,"S. aureus (MBC, μM)",[1]; ATCC 25923,>10.0 µM
"CC1(C)S[C@@H]2[C@H](NC(=O)[C@H](N)c3ccccc3)C(=O)N2[C@H]1C(=O)O [ampicillin, reference compound]",sensitivity of methicillin-resistant Staphylococcus aureus (in words),[9],insensitive
"GIGKFLHSAKKFGKAFVGEIMNS [Magainin II, reference compound]","S. aureus (MBC, μM)","[1]; Table 1, deletion peptides",>3.0 µM
"SRVLNRSLQVKVVKITN [Peptide 17-mer, SRVLNRSLQVKVVKITN]","S. aureus (MBC, μM)",[1]; ATCC 25923,>5.0 µM
"M^1HDFWVLWVLLEYIYNSACSVLS^23 (MHDFWVLWVLLEYIYNSACSVLS; listed as Homo sapiens) [Peptide 23-mer-N, mucocidin residues 1-23]",bactericidal activity (in words),[1],no activity
